Test systems include HCC-2998 colon; K-562 leukemia; OVCAR-4 ovarian; SF-539 CNS; SK-MEL-2 melanoma; SK-MEL-28 melanoma; SNB-75 CNS.
Common to all, as to experiment: growth of human tumour cells (NCI), 48 h

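Results reflect a 48-hour exposure of cells in 96-well plates to compound at five concentrations. Abbreviation: GI50, concentration required for 50% inhibition of growth. TGI: concentration producing complete growth inhibition.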

As for `COC1=CC(=O)c2c(cc3c(c2O)-c2c(OC)cc4cc5c(c(O)c4c2OC(=O)CC(C)(O)C3)C(=O)CC(C)(O)C5)C1=O` (configuration not stated), the TGI is 3.21 µM with HCC-2998 colon; 12.6 µM in the experiment on K-562 leukemia; 10.3 µM with OVCAR-4 ovarian; 3.67 µM with SF-539 CNS; 2.71 µM in the experiment on SK-MEL-2 melanoma; 4.36 µM in the experiment with SK-MEL-28 melanoma. The TGI with SNB-75 CNS is 3.51 µM.

Turning to `OCCCc1cnco1`, the TGI in the experiment on HCC-2998 colon, in the experiment with K-562 leukemia, in the experiment on OVCAR-4 ovarian, in the experiment with SF-539 CNS, in the experiment with SK-MEL-28 melanoma and in the experiment with SNB-75 CNS was more than 100 µM each time.

With `O=C(N/C=C/C=C/Sc1ccccc1)OCc1ccccc1`, the TGI in the experiment on HCC-2998 colon was 42.8 µM; with K-562 leukemia, more than 100 µM; in the experiment on OVCAR-4 ovarian, 57 µM; in the experiment on SF-539 CNS, 30.4 µM; in the experiment with SK-MEL-28 melanoma, 34.3 µM; in the experiment on SNB-75 CNS it was 42.4 µM.

Consider `Cc1cc2c(cc1C)[n+](=O)c(C(=O)CC(=O)C(=O)Nc1ccccc1C(C)C)c(C)n2[O-]`, for which the TGI with HCC-2998 colon, in the experiment with K-562 leukemia, in the experiment with OVCAR-4 ovarian, in the experiment with SF-539 CNS, in the experiment with SK-MEL-2 melanoma and in the experiment on SK-MEL-28 melanoma was more than 100 µM throughout. The TGI with SNB-75 CNS was more than 100 µM.

As for `O=C([O-])CCc1ccccc1.O=C([O-])CCc1ccccc1.O=C([O-])CCc1ccccc1.O=C([O-])CCc1ccccc1.[Mo+2].[Mo+2]`, the GI50 in the experiment with HCC-2998 colon, with K-562 leukemia, in the experiment with OVCAR-4 ovarian, in the experiment with SF-539 CNS, in the experiment with SK-MEL-2 melanoma and in the experiment with SK-MEL-28 melanoma was more than 100 µM each time. The TGI in the experiment with HCC-2998 colon, in the experiment on K-562 leukemia, in the experiment with OVCAR-4 ovarian, in the experiment on SF-539 CNS, in the experiment with SK-MEL-2 melanoma and with SK-MEL-28 melanoma was more than 100 µM in each case.

Regarding `CC(C)(CN1CCCCC1)C(=O)CC(SCCN)c1ccc(Cl)cc1` (configuration not stated), the TGI is 3.76 µM with HCC-2998 colon; more than 100 µM in the experiment with K-562 leukemia; 10.1 µM in the experiment on OVCAR-4 ovarian; 4.21 µM in the experiment with SF-539 CNS; 3.32 µM with SK-MEL-2 melanoma; 13 µM with SK-MEL-28 melanoma. For the same molecule, in the experiment with SNB-75 CNS, the TGI was 5.59 µM.

As for `N#Cc1c(-c2ccccc2)cc(-c2cccs2)c(C#N)c1N`, the TGI in the experiment with HCC-2998 colon was more than 100 µM; with K-562 leukemia it was more than 100 µM; in the experiment with OVCAR-4 ovarian, more than 100 µM; in the experiment on SF-539 CNS, more than 100 µM; in the experiment on SNB-75 CNS, 55.2 µM.

Consider `CCc1nc2ccccc2c(=O)n1/N=C(\N=Nc1ccc(Cl)cc1)c1ccccc1`, for which the TGI was 95.6 µM in the experiment on HCC-2998 colon; 75.6 µM with OVCAR-4 ovarian; 51.8 µM with SF-539 CNS; 82.5 µM in the experiment on SK-MEL-2 melanoma; more than 100 µM in the experiment with SK-MEL-28 melanoma; 40.1 µM in the experiment on SNB-75 CNS.

For the molecule `Fc1ccc(C2SCc3nc4ccccc4n32)cc1F` (configuration not stated), the TGI in the experiment on HCC-2998 colon is more than 100 µM; in the experiment with K-562 leukemia, more than 100 µM; in the experiment with OVCAR-4 ovarian it was 98.9 µM; in the experiment with SF-539 CNS, more than 100 µM; in the experiment on SK-MEL-2 melanoma, 63.7 µM; in the experiment on SK-MEL-28 melanoma it was 66.7 µM. In the experiment with SNB-75 CNS, this molecule registered a TGI of 56.9 µM.

As to `C#CCn1c(=O)c2cccnc2n(CC#C)c1=O`, the TGI in the experiment with HCC-2998 colon, in the experiment on OVCAR-4 ovarian, in the experiment with SK-MEL-2 melanoma, with SK-MEL-28 melanoma and in the experiment with SNB-75 CNS was more than 100 µM in each case.

Turning to `COC(=O)c1nc(C(=O)OC)c2c([nH]c3ccccc32)c1C(=O)OC`, the TGI in the experiment on HCC-2998 colon, with SF-539 CNS, in the experiment with SK-MEL-2 melanoma, with SK-MEL-28 melanoma and in the experiment with SNB-75 CNS was more than 100 µM throughout.

As for `NC(=S)N/N=C(\CCC(=O)Nc1ccccc1[N+](=O)[O-])CC(=O)c1ccco1`, the TGI in the experiment on HCC-2998 colon, with K-562 leukemia, in the experiment on OVCAR-4 ovarian, with SF-539 CNS, in the experiment with SK-MEL-2 melanoma and in the experiment with SK-MEL-28 melanoma was more than 100 µM throughout. In the experiment with SNB-75 CNS, the TGI is more than 100 µM.

With `CC(=O)SC(SC(C)=O)SC(C)=O`, the TGI with HCC-2998 colon, with K-562 leukemia, in the experiment with OVCAR-4 ovarian, in the experiment on SF-539 CNS, in the experiment with SK-MEL-2 melanoma and in the experiment with SK-MEL-28 melanoma was more than 100 µM each time. The same molecule had a TGI with SNB-75 CNS of more than 100 µM.

Regarding `O=C1C(=C([O-])c2ccccc2)C(=O)c2ccccc21.O=C1C(=C([O-])c2ccccc2)C(=O)c2ccccc21.[Co+2]`, the GI50 in the experiment with HCC-2998 colon, in the experiment with K-562 leukemia, in the experiment on OVCAR-4 ovarian, in the experiment with SF-539 CNS, in the experiment on SK-MEL-28 melanoma and in the experiment on SNB-75 CNS was more than 100 µM throughout. Besides, the TGI with HCC-2998 colon, with K-562 leukemia, with OVCAR-4 ovarian, in the experiment on SF-539 CNS, in the experiment with SK-MEL-28 melanoma and in the experiment on SNB-75 CNS was more than 100 µM each time.

For the molecule `N#CC(/C(=N/NC(N)=S)C(=O)Nc1cccc(Cl)c1)c1ccccc1` (configuration not stated), the TGI in the experiment with HCC-2998 colon, in the experiment with K-562 leukemia, in the experiment with OVCAR-4 ovarian, with SF-539 CNS, with SK-MEL-2 melanoma and in the experiment on SK-MEL-28 melanoma was more than 100 µM in each case. The TGI in the experiment with SNB-75 CNS was more than 100 µM.

`NC1=NC2=C(CCCC2)C(c2cccs2)S1` (configuration not stated): the TGI with HCC-2998 colon, in the experiment with K-562 leukemia, in the experiment on OVCAR-4 ovarian, with SF-539 CNS, in the experiment with SK-MEL-2 melanoma and in the experiment with SK-MEL-28 melanoma was more than 100 µM throughout. The TGI in the experiment with SNB-75 CNS is more than 100 µM.

Turning to `Cc1ccc(NC(=O)/C(=N\NC(N)=S)C(C#N)c2ccccc2C)cc1C` (configuration not stated), the TGI in the experiment on HCC-2998 colon, with K-562 leukemia, in the experiment with OVCAR-4 ovarian, in the experiment on SF-539 CNS, in the experiment on SK-MEL-2 melanoma and in the experiment on SK-MEL-28 melanoma was more than 100 µM throughout. This molecule also came in with a TGI in the experiment with SNB-75 CNS of more than 100 µM.

`C=C(COC(C)=O)CC(/C=C(\C)CC/C=C(\C)CO)OC(C)=O` (configuration not stated): the TGI in the experiment on HCC-2998 colon, in the experiment on K-562 leukemia, in the experiment on OVCAR-4 ovarian, in the experiment on SF-539 CNS, in the experiment on SK-MEL-2 melanoma and in the experiment with SK-MEL-28 melanoma was more than 100 µM each time. The molecule further returned a TGI with SNB-75 CNS of more than 100 µM.

Consider `CCCCN(CCCC)CC(C(=O)Nc1ccc([N+](=O)[O-])cc1[N+](=O)[O-])/C(C)=N\NC(=O)C[N+](C)(C)C` (configuration not stated), for which the TGI in the experiment with HCC-2998 colon, with K-562 leukemia, in the experiment with OVCAR-4 ovarian, with SF-539 CNS, in the experiment on SK-MEL-2 melanoma and with SK-MEL-28 melanoma was more than 100 µM throughout. For the same molecule, in the experiment on SNB-75 CNS, the TGI is more than 100 µM.

Regarding `CCc1cccc(CC)c1NC(=O)CC1SC(N)=NC1=O` (configuration not stated), the TGI in the experiment with HCC-2998 colon, with K-562 leukemia, in the experiment on OVCAR-4 ovarian, with SF-539 CNS, in the experiment with SK-MEL-2 melanoma and with SK-MEL-28 melanoma was more than 100 µM each time. In the experiment on SNB-75 CNS, the TGI was more than 100 µM.

For the molecule `CC1=NC=C(O)c2ccccc2O1`, the TGI in the experiment with HCC-2998 colon, in the experiment on K-562 leukemia, in the experiment with OVCAR-4 ovarian, in the experiment with SF-539 CNS, in the experiment with SK-MEL-2 melanoma and in the experiment with SK-MEL-28 melanoma was more than 100 µM throughout.

For the molecule `COc1cc(C2C(C(=O)O)=C(COC(C)=O)Oc3cc4c(cc32)OCO4)cc(OC)c1OC(C)=O` (configuration not stated), the TGI in the experiment with K-562 leukemia, with OVCAR-4 ovarian, in the experiment with SK-MEL-2 melanoma, in the experiment on SK-MEL-28 melanoma and in the experiment on SNB-75 CNS was more than 100 µM in each case.

For the molecule `CC(=O)OCC1OC([Se-])C(OC(C)=O)C(OC(C)=O)C1OC(C)=O.N#CCC[PH+](CCC#N)CCC#N.[Au+]` (configuration not stated), the GI50 in the experiment on HCC-2998 colon was 12.5 µM; with K-562 leukemia, 3.55 µM; with OVCAR-4 ovarian, 13.8 µM; with SF-539 CNS it was 15.3 µM; in the experiment on SK-MEL-2 melanoma, 11.8 µM; in the experiment on SK-MEL-28 melanoma, 9.01 µM. The GI50 in the experiment with SNB-75 CNS is 21.3 µM. Further, the TGI in the experiment with HCC-2998 colon was found to be 43.4 µM; in the experiment on K-562 leukemia it was 28.3 µM; with OVCAR-4 ovarian, 65.8 µM; in the experiment with SF-539 CNS it was 41.2 µM; with SK-MEL-2 melanoma, 48.4 µM; in the experiment on SK-MEL-28 melanoma, 60.5 µM. This molecule also came in with a TGI in the experiment with SNB-75 CNS of more than 100 µM.

In the case of `Cc1ccc(C(=O)N2CCCCC2)cc1N=NN(C)C`, the TGI with HCC-2998 colon, in the experiment with K-562 leukemia, with OVCAR-4 ovarian, in the experiment with SF-539 CNS, with SK-MEL-2 melanoma and with SK-MEL-28 melanoma was more than 100 µM each time. The same molecule returned a TGI with SNB-75 CNS of more than 100 µM.

For the molecule `CC(=O)Oc1ccc(Nn2c3ccccc3c3ccccc32)c(C)c1`, the TGI with HCC-2998 colon is 79.5 µM; in the experiment on K-562 leukemia, more than 100 µM; in the experiment on SK-MEL-2 melanoma, more than 100 µM; with SK-MEL-28 melanoma it was more than 100 µM.

As for `C=C1C(=O)c2cc3c(cc2C(c2cc(OC)c(OC)c(OC)c2)[C@@H]1C(=O)O)OCO3` (some centres not stated), the TGI in the experiment on HCC-2998 colon is more than 100 µM; in the experiment on K-562 leukemia, more than 100 µM; with SF-539 CNS, more than 100 µM; in the experiment with SK-MEL-28 melanoma, more than 100 µM; with SNB-75 CNS, 61.1 µM.

(Values after PubChem BioAssay (NCI).)
